Paper PMC12723477, “Evaluating the Antifungal Potential of Autophagy-Related Protein 4 (ATG4) Inhibitors against Human Fungal Pathogens” (Journal of Microbiology and Biotechnology, 2025)

How the values were obtained:
[1] = biological target: T1, AnAtg4 (Aspergillus niger ATG4) (Aspergillus niger, UniProt A2QY50); experiment: in vitro cleavage of AnAtg8 sensor by purified AnAtg4 at […] compound (immunoblot); type: biochemical
T1 construct: 6xHis-AnAtg4
T1 sequence (A2QY50 1-404): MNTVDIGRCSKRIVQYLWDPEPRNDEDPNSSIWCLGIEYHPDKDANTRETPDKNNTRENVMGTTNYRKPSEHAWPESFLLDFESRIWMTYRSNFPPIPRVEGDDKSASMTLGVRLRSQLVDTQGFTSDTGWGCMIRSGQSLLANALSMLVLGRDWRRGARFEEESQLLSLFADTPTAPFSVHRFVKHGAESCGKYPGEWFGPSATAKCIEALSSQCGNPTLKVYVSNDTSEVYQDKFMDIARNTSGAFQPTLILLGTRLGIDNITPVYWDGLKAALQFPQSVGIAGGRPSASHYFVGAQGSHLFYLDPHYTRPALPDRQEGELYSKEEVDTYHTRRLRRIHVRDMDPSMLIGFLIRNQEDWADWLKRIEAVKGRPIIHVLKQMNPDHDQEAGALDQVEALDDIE

[2] = biological target: T2, CnAtg4T (truncated Cryptococcus neoformans ATG4) (Cryptococcus neoformans, UniProt J9VN57); experiment: microscale thermophoresis with labelled purified CnAtg4T; also in vitro cleavage assay (IC50 […]) and BRET; type: binding
T2 construct: gene CNAG_02662; CnAtg4T, 6xHis, truncated version excluding the disordered N-terminus, retaining the catalytic triad Cys563/Asp782/His784

[3] = biological target: T2, CnAtg4T (truncated Cryptococcus neoformans ATG4); experiment: in vitro cleavage of CnAtg8 sensor by purified CnAtg4T (immunoblot) and BRET; type: biochemical

T2 sequence (J9VN57 entry or part of it): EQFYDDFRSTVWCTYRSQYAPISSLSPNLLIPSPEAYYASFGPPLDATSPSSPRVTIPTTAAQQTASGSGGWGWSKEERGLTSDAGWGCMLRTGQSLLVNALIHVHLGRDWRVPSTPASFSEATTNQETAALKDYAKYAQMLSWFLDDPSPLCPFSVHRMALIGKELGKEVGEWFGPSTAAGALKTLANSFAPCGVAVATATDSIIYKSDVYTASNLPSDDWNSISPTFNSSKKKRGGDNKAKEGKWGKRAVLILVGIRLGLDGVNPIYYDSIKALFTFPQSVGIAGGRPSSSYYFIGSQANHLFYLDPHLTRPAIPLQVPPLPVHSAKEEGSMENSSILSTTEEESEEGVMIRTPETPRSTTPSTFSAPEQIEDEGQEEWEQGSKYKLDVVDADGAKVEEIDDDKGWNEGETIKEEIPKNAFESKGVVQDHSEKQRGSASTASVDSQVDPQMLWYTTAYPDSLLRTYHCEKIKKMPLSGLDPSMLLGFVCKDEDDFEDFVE

SMILES | in vitro cleavage of AnAtg8 sensor by purified AnAtg4 at 10 μM compound (immunob) [1] | Kd [2] [µM] | IC50 [3] [µM]
O=c1c2ccccc2[se]n1-c1ccccc1 [EB, Ebselen] | the inhibitors exhibited comparable inhibitory effects on the ATG8 maturation catalyzed by AfAtg4 and AnAtg4 (Fig. 2D) | 0.7 ± 0.32 | 
O=C1c2ccccc2[Se](=O)N1c1ccccc1 (stereo not drawn) [EO, ebselen oxide] | the inhibitors exhibited comparable inhibitory effects on the ATG8 maturation catalyzed by AfAtg4 and AnAtg4 (Fig. 2D) |  | 4.8
Cc1ccc(-n2sc3ccccc3c2=O)cc1 [PT, 2-(4-methylphenyl)-1,2-benzisothiazol-3(2H)-one] | the inhibitors exhibited comparable inhibitory effects on the ATG8 maturation catalyzed by AfAtg4 and AnAtg4 (Fig. 2D) |  | 8.44
